EPA's CvTdb concentration-time database

Key:
[1] = tested on: rat; test: concentration in body after dosing; conditions: dosed: [3H]benzo(a)pyrene, 1 ug/kg, inhalation, male, Sprague Dawley, radiolabel
[2] = tested on: rat; test: concentration in lung after dosing; conditions: male, Sprague Dawley
[3] = tested on: rat; test: concentration in urine after dosing; conditions: male, Sprague Dawley
[4] = tested on: rat; test: concentration in feces after dosing; conditions: male, Sprague Dawley
[5] = tested on: rat; test: concentration in blood after dosing; conditions: male, Sprague Dawley
[6] = tested on: rat; test: concentration in liver after dosing; conditions: male, Sprague Dawley
[7] = tested on: rat; test: concentration in testes after dosing; conditions: dosed: [3H]benzo(a)pyrene, 1 ug/kg, inhalation, male, Sprague Dawley, radiolabel
[8] = tested on: rat; test: concentration in spleen after dosing; conditions: dosed: [3H]benzo(a)pyrene, 1 ug/kg, inhalation, male, Sprague Dawley, radiolabel
[9] = tested on: rat; test: concentration in kidney after dosing; conditions: male, Sprague Dawley
[10] = tested on: rat; test: concentration in stomach after dosing; conditions: dosed: [3H]benzo(a)pyrene, 1 ug/kg, inhalation, male, Sprague Dawley, radiolabel
[11] = tested on: rat; test: concentration in intestines after dosing; conditions: dosed: [3H]benzo(a)pyrene, 1 ug/kg, inhalation, male, Sprague Dawley, radiolabel
[12] = tested on: rat; test: concentration in heart/thymus after dosing; conditions: dosed: [3H]benzo(a)pyrene, 1 ug/kg, inhalation, male, Sprague Dawley, radiolabel
[13] = tested on: rat; test: concentration in skin after dosing; conditions: dosed: benzo(a)pyrene, 40 umol/kg, iv, male, Sprague Dawley
[14] = tested on: rat; test: concentration in adipose after dosing; conditions: dosed: benzo(a)pyrene, 40 umol/kg, iv, male, Sprague Dawley

[3H][3H] [[3H] radioactivity]
Conditions | concentration in body, [1] [µg/kg] | concentration in heart/thymus, [12] [µg/kg] | concentration in intestines, [11] [µg/kg] | concentration in spleen, [8] [µg/kg] | concentration in stomach, [10] [µg/kg] | concentration in testes, [7] [µg/kg]
0.25 h | 0.23 | 0.008 | 0.049 | 0.004 | 0.007 | 0.007
0.5 h | 0.263 | 0.005 | 0.052 | 0.002 | 0.012 | 0.006
1 h | 0.271 | 0.005 | 0.099 | 0.003 | 0.046 | 0.011
1.5 h | 0.25 | 0.005 | 0.126 | 0.002 | 0.037 | 0.013
2 h | 0.223 | 0.006 | 0.11 | 0.002 | 0.069 | 0.011
3 h | 0.214 | 0.005 | 0.123 | 0.002 | 0.05 | 0.008
4 h | 0.21 | 0.004 | 0.133 | 0.001 | 0.04 | 0.009
5 min | 0.144 | 0.009 | 0.019 | 0.005 | 0.003 | 0.004
6 h | 0.215 | 0.004 | 0.149 | 0.002 | 0.058 | 0.008
10 min | 0.264 | 0.016 | 0.033 | 0.003 | 0.007 | 0.005

dosed: [3H]benzo(a)pyrene, 1 ug/kg, inhalation, radiolabel
Conditions | concentration in blood, [5] [µg/kg] | concentration in feces, [4] [µg/kg] | concentration in kidney, [9] [µg/kg] | concentration in liver, [6] [µg/kg] | concentration in lung, [2] [µg/kg] | concentration in urine, [3] [µg/kg]
0.25 h | 0.038 | 0.029 | 0.019 | 0.196 | 0.322 | 0.002
0.5 h | 0.016 | 0.033 | 0.014 | 0.186 | 0.204 | 0.001
1 h | 0.016 | 0.143 | 0.022 | 0.158 | 0.154 | 0.003
1.5 h | 0.021 | 0.171 | 0.024 | 0.171 | 0.113 | 0.008
2 h | 0.019 | 0.168 | 0.02 | 0.132 | 0.11 | 0.011
3 h | 0.011 | 0.256 | 0.018 | 0.083 | 0.068 | 0.012
4 h | 0.008 | 0.301 | 0.017 | 0.067 | 0.035 | 0.016
5 min | 0.039 | 0.005 | 0.011 | 0.125 | 0.595 | –
6 h | 0.017 | 0.447 | 0.02 | 0.046 | 0.052 | 0.022
10 min | 0.03 | 0.008 | 0.019 | 0.208 | 0.419 | 0.0001

Oc1ccc2ccc3c4ccccc4cc4ccc1c2c43 [3-hydroxybenzo(a)pyrene]
Conditions | concentration in adipose, [14] [µmol/kg] | concentration in skin, [13] [µmol/kg]
2 h | 0.0241 | 0.385
4 h | 0.0381 | 0.232
8 h | 0.0582 | 0.135
16 h | 0.0348 | 0.103
24 h | 0.033 | 0.041
33 h | 0.0322 | 0.0215
48 h | 0.0192 | 0.0148
72 h | 0.0114 | 0.0073

dosed: benzo(a)pyrene, iv
Conditions | concentration in blood, [5] [µmol/kg] | concentration in feces, [4] [µmol/kg] | concentration in kidney, [9] [µmol/kg] | concentration in liver, [6] [µmol/kg] | concentration in lung, [2] [µmol/kg] | concentration in urine, [3]
2 h, 40 umol/kg | 0.105 | 0.0001 | 0.195 | 0.49 | 0.023 | 0.0001 µmol/kg
4 h, 40 umol/kg | 0.0863 | 0.0004 | 0.429 | 0.588 | 0.0236 | 0.0022 µmol/kg
4.5 h, 0.01 mg/kg | – | – | – | – | – | 0.494 µg/kg
4.5 h, 0.05 mg/kg | – | – | – | – | – | 1.59 µg/kg
8 h, 40 umol/kg | 0.0912 | 0.0035 | 0.65 | 0.141 | 0.0176 | 0.0119 µmol/kg
16 h, 40 umol/kg | 0.0388 | 0.471 | 0.583 | 0.0819 | 0.0153 | 0.0604 µmol/kg
24 h, 0.01 mg/kg | – | – | – | – | – | 0.582 µg/kg
24 h, 0.05 mg/kg | – | – | – | – | – | 2.5 µg/kg
24 h, 40 umol/kg | 0.0235 | 4.71 | 0.347 | 0.0528 | 0.0102 | 0.068 µmol/kg
33 h, 40 umol/kg | 0.0142 | 7.72 | 0.293 | 0.0505 | 0.0085 | 0.19 µmol/kg
48 h, 0.01 mg/kg | – | – | – | – | – | 0.068 µg/kg
48 h, 0.05 mg/kg | – | – | – | – | – | 0.305 µg/kg
48 h, 40 umol/kg | 0.0084 | 8.75 | 0.0936 | 0.0149 | 0.0047 | 0.149 µmol/kg
72 h, 0.01 mg/kg | – | – | – | – | – | 0.023 µg/kg
72 h, 0.05 mg/kg | – | – | – | – | – | 0.115 µg/kg
72 h, 40 umol/kg | 0.0047 | 12.9 | 0.0512 | 0.0096 | 0.0045 | 0.209 µmol/kg
